According to patent publication US20130252886A1, “METHODS OF DELAYING AND TREATING DIABETES” (priority 2010, published 2013):

What was measured:
Format in all cases: in vivo
[1] = system: Female NOD mice (NOD/ShiLtJ, Taconic); assay: Insulin requirement and blood glucose in diabetic NOD mice, GABA vs lysine controls (Example 6); conditions: range over the 9 week study period; GABA 60 or 90 mg/kg or lysine 8 mg/kg PO BID before insulin
Experimental: Female NOD mice (NOD/ShiLtJ, Taconic) were housed in accordance with NIH Animal Use and Welfare guidelines with 12 hour light-dark cycle beginning at 9 weeks of age. The animals were fed a standard rodent diet ad lib. Blood glucose was measured weekly using a Freestyle glucometer, and then twice daily once it was determined they had diabetes.
Mice were considered diabetic if a single non-fasting blood glucose measurement was […]. For about eight weeks before the mice became diabetic, their average fasting blood glucose was 102 mg/dl. Once diabetic, blood glucose levels were measured twice daily, approximately eight hours apart. All of the mice received insulin subcutaneously twice daily and the dosage was adjusted as needed. Three diabetic mice were randomly designated as controls and were given the amino acid lysine (8 mg/kg) orally (PO) twice a day before the administration of insulin.

[2] = Average body weight / lean body mass of NOD mice; conditions: 30 mg/kg GABA and/or 0.4 U insulin groups, FIGS. 3 and 4
From the text: FIGS. 3 and 4 show the average weight for the NOD mice in each group during the course of the experiment. The x-axis (age of mouse in weeks) corresponds to both the delayed onset and treatment regimens, depending on when the diagnosis of diabetes was made.

[3] = system: female NOD mice; assay: Diabetes prevention/delayed onset study, fasting blood glucose
From the text: Normally, ninety to one hundred percent of female NOD mice, available, for example, from Jackson Laboratory, develop diabetes by 30 weeks of age. Two treatments were designed to study delaying the onset of diabetes and diabetes intervention in NOD mice. The first examined therapies in NOD mice beginning at 8 weeks of age to delay the onset of diabetes onset.
In the diabetes prevention/delayed onset study, mice were divided into five groups. […] Group 3 received 0.4 units insulin subcutaneously just prior to consuming food.
Female NOD mice (Jackson Laboratory) were allowed to access food ad lib overnight. A 12 hour light-dark cycle was maintained and mice were housed in accordance with the NIH Animal Care and Use guidelines. Food was removed for eight hours during the day and the fasting blood glucose was tested daily at the end of the eight hour fast.
The control group received vegetable oil to the fur without anything else. […] The insulin only group was given 0.4 units insulin (SQ) just before feeding.
Diabetes was defined as a fasting blood glucose ≧200 mg/dl on three consecutive days. The average of the fasting blood glucose over the three days was included in the calculation of the average for each group in the prevention data (see Table 1 and FIG. 1).

| Compound | insulin requirements [1] | average weight / lean body mass [2] | Average Fasting Blood Glucose ([3]; 13 weeks of age, treatment just before feeding (30 mg/kg GABA PO and/or 0.4 U insulin SQ)) | Average Fasting Blood Glucose ([3]; 15 weeks of age, treatment just before feeding) | Average Fasting Blood Glucose ([3]; 17 weeks of age, treatment just before feeding) | Average Fasting Blood Glucose ([3]; 19 weeks of age, treatment just before feeding) | Average Fasting Blood Glucose ([3]; 21 weeks of age, treatment just before feeding) | Average Fasting Blood Glucose ([3]; 22 weeks of age, treatment just before feeding) | Average Fasting Blood Glucose ([3]; 24 weeks of age, treatment just before feeding) | Average Fasting Blood Glucose ([3]; 26 weeks of age, treatment just before feeding) |
| --- | --- | --- | --- | --- | --- | --- | --- | --- | --- | --- |
| NCCCC[C@H](N)C(=O)O [lysine, reference compound] | 0.030-0.047 units/day |  |  |  |  |  |  |  |  |  |
| Insulin: exogenous insulin given subcutaneously, 0.4 units just prior to consuming food [reference compound] |  | increased body mass throughout the study | 82 mg/dL | 114 mg/dL | 162 mg/dL | 134 mg/dL | 150 mg/dL | 188 mg/dL | 195 mg/dL | 260 mg/dL |
